Key:
[1] = test system: EMRSA m97 271 047 phage group 8; test: ZOI of triclosan vapours (vapour phase)
[2] = test system: MRSA 14; test: ZOI of triclosan vapours (vapour phase)
[3] = test system: MRSA 17; test: ZOI of triclosan vapours (vapour phase)
[4] = test system: S. saprophyticus NCIMB 8711; test: MIC of triclosan (direct contact); assay type: cell-based
[5] = test system: EMRSA m97 271 032 phage group 10; test: ZOI of triclosan vapours (vapour phase)
[6] = test system: EMRSA m97 271 032 phage group 10; test: MIC of triclosan (direct contact)
[7] = test system: EMRSA m97 271 064 phage group 14; test: ZOI of triclosan vapours (vapour phase)
[8] = test system: Oxford S. aureus NCTC 6571; test: ZOI of triclosan vapours (vapour phase); assay type: cell-based
[9] = test system: EMRSA m97 271 038 phage group 2; test: ZOI of triclosan vapours (vapour phase)
[10] = test system: EMRSA g96 136 210 phage group 17; test: ZOI of triclosan vapours (vapour phase)
[11] = test system: EMRSA m97 271 036 phage group 11; test: ZOI of triclosan vapours (vapour phase)
[12] = test system: S. saprophyticus NCIMB 8711; test: ZOI of triclosan vapours (vapour phase); assay type: cell-based
[13] = test system: Strain T4 MSSA; test: MIC of triclosan (direct contact); assay type: cell-based, S. aureus
[14] = test system: Strain T1 MSSA; test: MIC of triclosan (direct contact); assay type: cell-based, S. aureus
[15] = test system: EMRSA g96 139 515 phage group 15; test: ZOI of triclosan vapours (vapour phase)
[16] = test system: S. haemolyticus NCTC 11042; test: ZOI of triclosan vapours (vapour phase); assay type: cell-based
[17] = test system: MRSA 26; test: ZOI of triclosan vapours (vapour phase)
[18] = test system: all strains of staphylococci; test: MIC of triclosan (direct contact), all strains; assay type: cell-based
[19] = test system: S. aureus NCBC 11882; test: ZOI of triclosan vapours (vapour phase); assay type: cell-based
[20] = test system: EMRSA m97271052 phage group 4; test: ZOI of triclosan vapours (vapour phase)
[21] = test system: MSSA (48); test: ZOI of triclosan vapours (vapour phase); assay type: cell-based, S. aureus
[22] = test system: Strain T4 MSSA; test: ZOI of triclosan vapours (vapour phase); assay type: cell-based, S. aureus
[23] = test system: MRSA 15; test: ZOI of triclosan vapours (vapour phase)
[24] = test system: EMRSA g96 138 744 phage group 16; test: ZOI of triclosan vapours (vapour phase)
[25] = test system: MRSA 13; test: ZOI of triclosan vapours (vapour phase)
[26] = test system: EMRSA j95 922 phage group 3; test: ZOI of triclosan vapours (vapour phase)
[27] = test system: EMRSA m972 710 40 phage group 9; test: ZOI of triclosan vapours (vapour phase)
[28] = test system: MSSA (47); test: ZOI of triclosan vapours (vapour phase); assay type: cell-based, S. aureus
[29] = test system: MRSA 11; test: ZOI of triclosan vapours (vapour phase)
[30] = test system: MRSA 12; test: ZOI of triclosan vapours (vapour phase)

Compound: Oc1cc(Cl)ccc1Oc1ccc(Cl)cc1Cl [triclosan]
- ZOI Average ([1]; average): 52 mm
- ZOI 1 ([1]; replicate 1): 52 mm
- ZOI 2 ([1]; replicate 2): 52 mm
- ZOI Average ([2]; average): 55 mm
- ZOI 1 ([2]; replicate 1): 55 mm
- ZOI 2 ([2]; replicate 2): 55 mm
- ZOI Average ([3]; average): 32 mm
- ZOI 1 ([3]; replicate 1): 31 mm
- ZOI 2 ([3]; replicate 2): 33 mm
- MIC [4]: 2 Mg ml^−1−
- ZOI Average ([5]; average): 49 mm
- ZOI 1 ([5]; replicate 1): 49 mm
- ZOI 2 ([5]; replicate 2): 49 mm
- MIC [6]: 0.5 Mg ml^−1−
- ZOI Average ([7]; average): 35 mm
- ZOI 1 ([7]; replicate 1): 35 mm
- ZOI 2 ([7]; replicate 2): 35 mm
- ZOI Average ([8]; average): 51 mm
- ZOI 1 ([8]; replicate 1): 50 mm
- ZOI 2 ([8]; replicate 2): 52 mm
- ZOI Average ([9]; average): 57 mm
- ZOI 1 ([9]; replicate 1): 57 mm
- ZOI 2 ([9]; replicate 2): 57 mm
- ZOI Average ([10]; average): 47 mm
- ZOI 1 ([10]; replicate 1): 47 mm
- ZOI 2 ([10]; replicate 2): 47 mm
- ZOI Average ([11]; average): 52 mm
- ZOI 1 ([11]; replicate 1): 52 mm
- ZOI 2 ([11]; replicate 2): 52 mm
- ZOI Average ([12]; average): 37.5 mm
- ZOI 1 ([12]; replicate 1): 33 mm
- ZOI 2 ([12]; replicate 2): 42 mm
- MIC [13]: 0.25 Mg ml^−1−
- MIC [14]: 0.5 Mg ml^−1−
- ZOI Average ([15]; average): 47 mm
- ZOI 1 ([15]; replicate 1): 47 mm
- ZOI 2 ([15]; replicate 2): 47 mm
- ZOI Average ([16]; average): 46 mm
- ZOI 1 ([16]; replicate 1): 48 mm
- ZOI 2 ([16]; replicate 2): 44 mm
- ZOI Average ([17]; average): 40 mm
- ZOI 1 ([17]; replicate 1): 40 mm
- ZOI 2 ([17]; replicate 2): 40 mm
- concentration able to inhibit all strains of staphylococci [18]: 2 µg/mL
- ZOI Average ([19]; average): 48 mm
- ZOI 1 ([19]; replicate 1): 47 mm
- ZOI 2 ([19]; replicate 2): 49 mm
- ZOI Average ([20]; average): 50 mm
- ZOI 1 ([20]; replicate 1): 50 mm
- ZOI 2 ([20]; replicate 2): 50 mm
- ZOI Average ([21]; average): 48.5 mm
- ZOI 1 ([21]; replicate 1): 49 mm
- ZOI 2 ([21]; replicate 2): 48 mm
- ZOI Average ([22]; average): 51 mm
- ZOI 1 ([22]; replicate 1): 50 mm
- ZOI 2 ([22]; replicate 2): 52 mm
- ZOI Average ([23]; average): 50 mm
- ZOI 1 ([23]; replicate 1): 50 mm
- ZOI 2 ([23]; replicate 2): 50 mm
- ZOI Average ([24]; average): 50 mm
- ZOI 1 ([24]; replicate 1): 50 mm
- ZOI 2 ([24]; replicate 2): 50 mm
- ZOI Average ([25]; average): 47 mm
- ZOI 1 ([25]; replicate 1): 47 mm
- ZOI 2 ([25]; replicate 2): 47 mm
- ZOI Average ([26]; average): 54 mm
- ZOI 1 ([26]; replicate 1): 55 mm
- ZOI 2 ([26]; replicate 2): 53 mm
- ZOI Average ([27]; average): 55 mm
- ZOI 1 ([27]; replicate 1): 55 mm
- ZOI 2 ([27]; replicate 2): 55 mm
- ZOI Average ([28]; average): 51.5 mm
- ZOI 1 ([28]; replicate 1): 52 mm
- ZOI 2 ([28]; replicate 2): 51 mm
- ZOI Average ([29]; average): 43 mm
- ZOI 1 ([29]; replicate 1): 43 mm
- ZOI 2 ([29]; replicate 2): 43 mm
- ZOI Average ([30]; average): 44.5 mm
- ZOI 1 ([30]; replicate 1): 45 mm
- ZOI 2 ([30]; replicate 2): 44 mm

Reference: patent publication US20080140036A1, “Antimicrobial Composition” (priority 2004, published 2008)
